What follows are molecules tested against T1, neutrophil elastase (Homo sapiens, UniProt P08246) (assay: Human Neutrophil Elastase Assay). Settings: substrate MeOSuc-Ala-Ala-Pro-Val-AMC, pH 7.5, room temperature.
T1 sequence (P08246 30-247 limits assumed): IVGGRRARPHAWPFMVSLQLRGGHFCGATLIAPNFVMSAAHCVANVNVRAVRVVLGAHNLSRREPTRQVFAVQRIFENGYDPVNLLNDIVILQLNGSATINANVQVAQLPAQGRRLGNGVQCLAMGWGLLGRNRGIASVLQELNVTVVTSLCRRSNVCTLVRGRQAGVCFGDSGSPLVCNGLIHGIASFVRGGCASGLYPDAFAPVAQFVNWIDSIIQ
Format: biochemical
Set-up: purchased Calbiochem 324681
Description: Human Neutrophil Elastase Assay
Materials: Human neutrophil elastase was purchased from Calbiochem (Cat.No.: 324681) and the elastase substrate MeOSuc-Ala-Ala-Pro-Val-AMC from Bachem (Cat.No.: I-1270). All other materials were of the highest grade commercially available.
The following buffers were used: Compound buffer: 100 mM Tris, 500 mM NaCl, adjusted to pH 7.5; Assay buffer: 100 mM Tris, 500 mM NaCl, adjusted to pH 7.5, containing 0.01% BSA.
Assay conditions: Test compounds were prediluted in DMSO and subsequently in compound buffer (5% DMSO final). 5 μL of these compound dilutions were mixed with 10 μl Neutrophil elastase (9 ng/ml in assay buffer) in a black 384 well OptiPlate (Perkin Elmer, Cat No.: 6007270) and incubated for 15 min at room temperature. Subsequently 10 μL substrate solution in assay buffer were added (250 nM final concentration) and the plates were incubated for 60 min at room temperature. After inactivation of the enzyme, fluorescence intensities were measured at 380 nm excitation and 460 nm emission wavelengths.
Each plate contains wells with a high value control (DMSO+enzyme+substrate) and wells with a low value control (DMSO+inactivated enzyme+substrate). IC50 values were estimated using a sigmoidal concentration response curve with variable slope. Means of low values were taken as 0%, means of high values as 100%.

IC50	SMILES
68.3 nM	CC1(C)CC(=O)C2=C(C1)N(c1cccc(C(F)(F)F)c1)C(=O)NC2c1ccc(C#N)cc1 (stereo not drawn) [Example 3, 4-(7,7-Dimethyl-2,5-dioxo-1-(3-(trifluoromethyl)phenyl)-1,2,3,4,5,6,7,8-octahydroquinazolin-4-yl)benzonitrile]
110 nM	N#Cc1ccc(C2NC(=O)N(c3cccc(C(F)(F)F)c3)C3=C2C(=O)CC2(CCOCC2)C3)cc1 (stereo not drawn) [Example 4, 4-(2′,5′-Dioxo-1′-(3-(trifluoromethyl)phenyl)-2,2′,3,3′,4′,5,5′,6,6′,8′-decahydro-1′H-spiro[pyran-4,7′-quinazoline]-4′-yl)benzonitrile]
65.8 nM	N#Cc1ccc(C2NC(=O)N(c3cccc(C(F)(F)F)c3)C3=C2C(=O)CC(C(F)(F)F)C3)cc1 (stereo not drawn) [Example 5, 4-(2,5-Dioxo-7-(trifluoromethyl)-1-(3-(trifluoromethyl)phenyl)-1,2,3,4,5,6,7,8-octahydroquinazolin-4-yl)benzonitrile]
47.6 nM	N#Cc1ccc(C2NC(=O)N(c3cccc(C(F)(F)F)c3)C3=C2C(=O)CC(c2ccccc2)C3)cc1 (stereo not drawn) [Example 6, 4-(2,5-dioxo-7-phenyl-1-(3-(trifluoromethyl)phenyl)-1,2,3,4,5,6,7,8-octahydroquinazolin-4-yl)benzonitrile]
212 nM	N#Cc1ccc(C2NC(=O)N(c3cccc(C(F)(F)F)c3)C3=C2C(=O)CC(c2ccc(C(F)(F)F)cc2)C3)cc1 (stereo not drawn) [Example 7, 4-(2,5-Dioxo-1-(3-(trifluoromethyl)phenyl)-7-(4-(trifluoromethyl)phenyl)-1,2,3,4,5,6,7,8-octahydroquinazolin-4-yl)benzonitrile]
48.5 nM	N#Cc1ccc(C2NC(=O)N(c3cccc(C(F)(F)F)c3)C3=C2C(=O)CC(C(=O)O)C3)cc1 (stereo not drawn) [Example 10, 4-(4-Cyanophenyl)-2,5-dioxo-1-(3-(trifluoromethyl)phenyl)-1,2,3,4,5,6,7,8-octahydroquinazoline-7-carboxylic acid]
54.1 nM	N#Cc1ccc(C2NC(=O)N(c3cccc(C(F)(F)F)c3)C3=C2C(=O)CCC3)cn1 (stereo not drawn) [Example 16, 5-(2,5-dioxo-1-(3-(trifluoromethyl)phenyl)-1,2,3,4,5,6,7,8-octahydroquinazolin-4-yl)-picolinonitrile]
23.2 nM	N#Cc1ccc(C2NC(=O)N(c3cccc(C(F)F)c3)C3=C2C(=O)CCC3)cc1 (stereo not drawn) [Example 17, 4-(1-(3-(Difluoromethyl)phenyl)-2,5-dioxo-1,2,3,4,5,6,7,8-octahydroquinazolin-4-yl)-benzonitrile]
10.7 nM	N#Cc1ccc(C2C3=C(CCCC3=O)N(c3cccc(C(F)(F)F)c3)C(=O)N2CCCN2CCCC2)cc1 (stereo not drawn) [Example 23, 4-(1-(3-(Trifluoromethyl)phenyl)-2,5-dioxo-3-(3-(pyrrolidin-1-yl)propyl)-1,2,3,4,5,6,7,8-octahydroquinazolin-4-yl)benzonitrile]
6.6 nM	Cn1nccc1CN1C(=O)N(c2cccc(C(F)(F)F)c2)C2=C(C(=O)CCC2)C1c1ccc(C#N)cc1 (stereo not drawn) [Example 24.1]
8.6 nM	N#Cc1ccc(C2C3=C(CCCC3=O)N(c3cccc(C(F)(F)F)c3)C(=O)N2CC2CCOC2)cc1 (stereo not drawn) [Example 25, 4-(1-(3-(Trifluoromethyl)phenyl)-2,5-dioxo-3-((tetrahydrofuran-3-yl)methyl)-1,2,3,4,5,6,7,8-octahydroquinazolin-4-yl)benzonitrile]

The remaining lines, values behind:

SMILES	IC50
CC1(C)CCC2=C(C1=O)C(c1ccc(C#N)cc1)NC(=O)N2c1cccc(C(F)(F)F)c1 (stereo not drawn) [Example 2, 4-(6,6-Dimethyl-2,5-dioxo-1-(3-(trifluoromethyl)phenyl)-1,2,3,4,5,6,7,8-octahydroquinazolin-4-yl)benzonitrile]	44.9 nM
COc1cc(C2CC(=O)C3=C(C2)N(c2cccc(C(F)(F)F)c2)C(=O)NC3c2ccc(C#N)cc2)cc(OC)c1OC (stereo not drawn) [Example 8, 4-(2,5-Dioxo-1-(3-(trifluoromethyl)phenyl)-7-(3,4,5-trimethoxyphenyl)-1,2,3,4,5,6,7,8-octahydroquinazolin-4-yl)benzonitrile]	26.3 nM
N#Cc1ccc(C2NC(=O)N(c3cccc(C(F)(F)F)c3)C3=C2C(=O)CC(c2cccs2)C3)cc1 (stereo not drawn) [Example 9, 4-(2,5-Dioxo-7-(thiophen-2-yl)-1-(3-(trifluoromethyl)phenyl)-1,2,3,4,5,6,7,8-octahydroquinazolin-4-yl)benzonitrile]	41.7 nM
COC(=O)C1CC(=O)C2=C(C1)N(c1cccc(C(F)(F)F)c1)C(=O)NC2c1ccc(C#N)cc1 (stereo not drawn) [Example 11, Methyl 4-(4-Cyanophenyl)-2,5-dioxo-1-(3-(trifluoromethyl)phenyl)-1,2,3,4,5,6,7,8-octahydroquinazoline-7-carboxylate]	39.4 nM
N#Cc1ccc(C2NC(=O)N(c3cccc(C(F)(F)F)c3)C3=C2C(=O)CC(C(N)=O)C3)cc1 (stereo not drawn) [Example 12, 4-(4-Cyanophenyl)-2,5-dioxo-1-(3-(trifluoromethyl)phenyl)-1,2,3,4,5,6,7,8-octahydroquinazoline-7-carboxamide]	43.4 nM
N#Cc1ccc(C2NC(=O)N(c3cc(C(F)(F)F)ccn3)C3=C2C(=O)CCC3)cc1 (stereo not drawn) [Example 13, 4-(2,5-Dioxo-1-(4-(trifluoromethyl)pyridin-2-yl)-1,2,3,4,5,6,7,8-octahydroquinazolin-4-yl)benzonitrile]	110 nM
N#Cc1ccc(C2NC(=O)N(c3ccnc(C(F)(F)F)c3)C3=C2C(=O)CCC3)cc1 (stereo not drawn) [Example 14, 4-(2,5-Dioxo-1-(2-(trifluoromethyl)pyridin-4-yl)-1,2,3,4,5,6,7,8-octahydroquinazolin-4-yl)benzonitrile]	70.3 nM
N#Cc1ccc(C2NC(=O)N(c3cccc(C(F)(F)F)c3)C3=C2C(=O)CCC3)nc1 (stereo not drawn) [Example 15, 6-(2,5-Dioxo-1-(3-(trifluoromethyl)phenyl)-1,2,3,4,5,6,7,8-octahydroquinazolin-4-yl)-nicotinonitrile]	52.1 nM
CCCCN1C(=O)N(c2cccc(C(F)(F)F)c2)C2=C(C(=O)CCC2)C1c1ccc(C#N)cc1 (stereo not drawn) [Example 21, 4-(3-Butyl-1-(3-(trifluoromethyl)phenyl)-2,5-dioxo-1,2,3,4,5,6,7,8-octahydroquinazolin-4-yl)benzonitrile]	19.4 nM
COCCN1C(=O)N(c2cccc(C(F)(F)F)c2)C2=C(C(=O)CCC2)C1c1ccc(C#N)cc1 (stereo not drawn) [Example 22, 4-(1-(3-(Trifluoromethyl)phenyl)-3-(2-methoxyethyl)-2,5-dioxo-1,2,3,4,5,6,7,8-octahydroquinazolin-4-yl)benzonitrile]	8.7 nM
COCCCN1C(=O)N(c2cccc(C(F)(F)F)c2)C2=C(C(=O)CCC2)C1c1ccc(C#N)cc1 (stereo not drawn) [Example 24, 4-(1-(3-(Trifluoromethyl)phenyl)-3-(3-methoxypropyl)-2,5-dioxo-1,2,3,4,5,6,7,8-octahydroquinazolin-4-yl)benzonitrile]	6.4 nM
Cn1cc(CN2C(=O)N(c3cccc(C(F)(F)F)c3)C3=C(C(=O)CCC3)C2c2ccc(C#N)cc2)cn1 (stereo not drawn) [Example 24.2]	9.8 nM
Cn1ccc(CN2C(=O)N(c3cccc(C(F)(F)F)c3)C3=C(C(=O)CCC3)C2c2ccc(C#N)cc2)n1 (stereo not drawn) [Example 24.3]	11.1 nM
N#Cc1ccc(C2C3=C(CCCC3=O)N(c3cccc(C(F)(F)F)c3)C(=O)N2CC2CCOCC2)cc1 (stereo not drawn) [Example 26]	11.8 nM
Cn1ccc(CN2C(=O)N(c3cccc(C(F)(F)F)c3)C3=C(C(=O)CCC3)C2c2ccc(C#N)cc2)cc1=O (stereo not drawn) [Example 27, 4-(1-(3-(Trifluoromethyl)phenyl)-3-((1-methyl-2-oxo-1,2-dihydropyridin-4-yl)methyl)-2,5-dioxo-1,2,3,4,5,6,7,8-octahydroquinazolin-4-yl)benzonitrile]	10.8 nM
COC(=O)c1ccc(CN2C(=O)N(c3cccc(C(F)(F)F)c3)C3=C(C(=O)CCC3)C2c2ccc(C#N)cc2)o1 (stereo not drawn) [Example 28, Methyl 5-((4-(4-Cyanophenyl)-2,5-dioxo-1-(3-(trifluoromethyl)phenyl)-1,2,5,6,7,8-hexahydroquinazolin-3(4H)-yl)methyl)furan-2-carboxylate]	29 nM
N#Cc1ccc(C2C3=C(CCCC3=O)N(c3cccc(C(F)(F)F)c3)C(=O)N2Cc2ccc(C(=O)O)o2)cc1 (stereo not drawn) [Example 29, 5-((4-(4-Cyanophenyl)-2,5-dioxo-1-(3-(trifluoromethyl)phenyl)-1,2,5,6,7,8-hexahydroquinazolin-3(4H)-yl)methyl)furan-2-carboxylic acid]	13.7 nM
CS(=O)(=O)CCN1C(=O)N(c2cccc(C(F)(F)F)c2)C2=C(C(=O)CCC2)C1c1ccc(C#N)cc1 (stereo not drawn) [Example 30, 4-(3-(2-(Methylsulfonyl)ethyl)-2,5-dioxo-1-(3-(trifluoromethyl)phenyl)-1,2,3,4,5,6,7,8-octahydroquinazolin-4-yl)benzonitrile]	4 nM
N#Cc1ccc(C2C3=C(CCCC3=O)N(c3cccc(C(F)(F)F)c3)C(=O)N2CC(=O)O)cc1 (stereo not drawn) [Example 32, 2-(4-(4-Cyanophenyl)-2,5-dioxo-1-(3-(trifluoromethyl)phenyl)-1,2,5,6,7,8-hexahydroquinazolin-3(4H)-yl)acetic acid]	12 nM

Reference: US9115093B2, “Substituted bicyclic dihydropyrimidinones and their use as inhibitors of neutrophil elastase activity” (Boehringer Ingelheim International GmbH, priority 2013, dated 2015)
